# Compound: COc1cc2ncn(-c3cc(OCc4ccccc4C(F)(F)F)c(C(N)=O)s3)c2cc1OC + COc1cc2c(Oc3ccc(NC(=O)C4(C(=O)Nc5ccc(F)cc5)CC4)cc3F)ccnc2cc1OCCCN1CCOCC1 [Foretinib] (partner 0.25 µM)
# Experiment: relative viability (nuclei count vs DMSO), 5 days (fraction); higher = more cells survive
# How it was run: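 Lung cancer cell lines were pin-tool dosed in 1536-well plates on the day after seeding, with either a lone drug or a fixed anchor-drug dose plus five library-drug doses (not always all listed) in √10 steps. Nuclei were counted on 4× images after 5 days. Relative viability is the ratio of treated-well to vehicle-well nuclei counts, with each value a median of duplicate plates.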
Cell Line,relative viability (first compound 0.05 µM),relative viability (first compound 0.1581 µM),relative viability (first compound 0.5 µM),relative viability (first compound 1.581 µM),relative viability (first compound 5 µM)
LCLC-97TM1,0.914,0.896,0.646,0.184,0.147
HARA,1.03,0.886,0.734,0.11,0.0673
HCC-78,0.574,0.585,0.469,0.327,0.379
NCI-H1666,0.927,0.832,0.507,0.393,0.354
NCI-H2347,0.966,0.916,0.98,0.651,0.428
PC-14,0.934,0.929,0.784,–,0.629
NCI-H2023,0.765,0.799,0.725,0.416,0.0871
201T,1.06,1.09,1.07,0.414,0.165
NCI-H1915,1.08,1.03,0.702,0.204,0.141
NCI-H2009,1.07,1.1,0.89,0.354,0.248
BEN,0.559,0.557,0.623,0.271,0.307
PC-3 [JPC-3],0.96,0.992,0.402,0.238,0.233
SK-MES-1,0.892,0.877,0.518,–,0.667
NCI-H838,1.17,1.09,0.832,0.455,0.139
NCI-H1355,0.935,0.888,0.642,0.218,0.139
NCI-H1975,0.932,0.961,0.516,0.155,0.138
LK-2,1.27,0.987,0.266,0.163,0.135
NCI-H727,0.929,0.941,0.639,0.309,0.476
HCC-366,0.962,0.938,0.282,0.0269,0.0243

Cell Line,relative viability (first compound 0.05 µM),relative viability (first compound 0.1581 µM),relative viability (first compound 0.5 µM),relative viability (first compound 1.581 µM),relative viability (first compound 5 µM)
HOP-62,1.16,1,1.03,0.295,0.139
NCI-H1944,0.804,1.03,0.743,0.221,0.131
UMC-11,0.893,0.836,0.156,0.18,0.145
LU99A,0.564,0.87,0.572,0.302,0.216
NCI-H650,0.995,1.08,0.779,0.348,0.637
A-427,1.13,0.923,0.81,0.398,0.137
COR-L 105,1.2,1.2,1.17,0.391,0.302
NCI-H441,1.03,0.871,0.266,0.249,0.226
NCI-H2126,1.21,1.26,0.672,0.365,0.318
EBC-1,0.0982,0.102,0.0761,0.0874,0.0751
NCI-H460,1.07,0.938,0.499,0.028,0.0214
SW 1573,0.927,0.94,0.825,0.157,0.567
NCI-H322M,0.956,1.16,0.857,0.499,0.406
EKVX,0.779,0.516,0.603,–,0.46
NCI-H1734,0.85,1.06,0.56,0.257,0.204
SW 900,0.857,0.818,0.7,0.41,0.169
ABC-1,1.2,1.08,0.758,0.225,0.239
NCI-H520,0.892,0.836,0.357,0.249,0.204

# Source: the supplement of paper PMC10307832
